Measurements from BindingDB's records for doi:10.1021/jm00043a011 (University of Athens, 1994).
*1 amine or outer side, *2 acyl side, *3 side chain or, on linkers, in order; H or OH if unused. Where a SMILES comes first, the peptide text is derived from it. [ ]: non-standard residue; d: D form. PheΨ(PO2HCH2)Gly = O=C(CCP(=O)(O)[C@H](Cc1ccccc1)N[*:1])[*:2]; X2 = O=C(CCP(=O)(O)[C@@H](Cc1ccccc1)N[*:1])[*:2]; X1 = O=C(CCP(O)(O)=C(Cc1ccccc1)N[*:1])[*:2]; Nle = CCCC[C@H](N)C(=O)O

test: Binding constant containing a pseudophenylalanine residue

| Structure (SMILES) | Ki |
| --- | --- |
| CCCC[C@@H]1NC(=O)[C@@H]2CCCN2C(=O)CCP(O)(O)=C(Cc2ccccc2)NC(=O)[C@@H]2CCCN2C(=O)CNC1=O (cyclo(GP[X1]P[Nle])) | 0.12 µM |

test: Inhibition of bacterial collagenase from corynebacterium rathaii

| Structure (SMILES) | Ki |
| --- | --- |
| O=C1NCC(=O)N2CCC[C@H]2C(=O)N[C@@H](Cc2ccccc2)P(=O)(O)CCC(=O)N2CCC[C@@H]12 | 9 µM |
| COC(=O)[C@@H]1CSSC[C@H](NC(C)=O)C(=O)N2CCC[C@H]2C(=O)N[C@H](Cc2ccccc2)P(=O)(O)CCC(=O)N2CCC[C@H]2C(=O)N1 | 3 µM |
| COC(=O)[C@H]1CSSC[C@@H](NC(C)=O)C(=O)N2CCC[C@@H]2C(=O)N[C@@H](Cc2ccccc2)P(=O)(O)CCC(=O)N2CCC[C@@H]2C(=O)N1 | 45 µM |
| CCCC[C@@H]1NC(=O)[C@@H]2CCCN2C(=O)CCP(=O)(O)[C@H](Cc2ccccc2)NC(=O)[C@@H]2CCCN2C(=O)CNC1=O | 0.18 µM |
| O=C1NCC(=O)N2CCC[C@H]2C(O)N=C(Cc2ccccc2)P(O)(O)=CCC(=O)N2CCC[C@@H]12 (stereo partly drawn) | 6 µM |
| C[C@@H]1NC(=O)[C@@H]2CCCN2C(=O)[C@H](C)NC(=O)CCP(=O)(O)[C@H](Cc2ccccc2)NC(=O)[C@@H]2CCCN2C(=O)CNC1=O (cyclo(AGP[PheΨ(PO2HCH2)Gly]AP)) | 20 µM |
| C[C@@H]1NC(=O)[C@@H]2CCCN2C(=O)[C@H](C)NC(=O)CCP(=O)(O)[C@@H](Cc2ccccc2)NC(=O)[C@@H]2CCCN2C(=O)CNC1=O (cyclo(AGP[X2]AP)) | 12 µM |
| CCCC[C@@H]1NC(=O)[C@@H]2CCCN2C(=O)CCP(O)(O)=C(Cc2ccccc2)NC(=O)[C@@H]2CCCN2C(=O)CNC1=O (cyclo(GP[X1]P[Nle])) | 0.12 µM |
| CCCC[C@@H]1NC(=O)[C@@H]2CCCN2C(=O)CCP(=O)(O)[C@H](Cc2ccccc2)NC(=O)[C@@H]2CCCN2C(=O)[C@H](CO)NC1=O (cyclo([Nle]SP[PheΨ(PO2HCH2)Gly]P)) | 40 µM |
| CCCC[C@@H]1NC(=O)[C@@H]2CCCN2C(=O)CCP(O)(O)=C(Cc2ccccc2)NC(=O)[C@@H]2CCCN2C(=O)[C@H](CO)NC1=O (cyclo([Nle]SP[X1]P)) | 25 µM |
| CCCCC1NC(=O)[C@H]2CCCN2C(=O)CCP(=O)(O)[C@@H](Cc2ccccc2)NC(=O)[C@@H]2CCCN2C(=O)CCNC1=O (stereo partly drawn) [(6S,9S,22R)-6-Benzyl-19-butyl-5-hydroxy-5-oxo-1,7,13,17,20-pentaaza-5lambda*5*-phospha-tricyclo[20.3.0.0*9,13*]pentacosane-2,8,14,18,21-pentaone] | 0.09 µM |

test: Binding constant containing a pseudophenylalanine residue; remark: another data set of the same source

| Structure (SMILES) | Ki |
| --- | --- |
| CCCCC1NC(=O)[C@H]2CCCN2C(=O)CCP(=O)(O)[C@@H](Cc2ccccc2)NC(=O)[C@@H]2CCCN2C(=O)CCNC1=O (stereo partly drawn) [(6S,9S,22R)-6-Benzyl-19-butyl-5-hydroxy-5-oxo-1,7,13,17,20-pentaaza-5lambda*5*-phospha-tricyclo[20.3.0.0*9,13*]pentacosane-2,8,14,18,21-pentaone] | 0.09 µM |
